# From the NIST ThermoML archive (doi:10.1016/j.jct.2012.12.019)
# Numbers after ± are expanded uncertainties.
# Details: Liquid, Closed cell (Static) method
compound,measurement,setting,value
CCCO [propan-1-ol],vapor or sublimation pressure,383.2 K,160.4 ± 3.5 kPa
same,vapor or sublimation pressure,393.2 K,223.3 ± 4.7 kPa
same,vapor or sublimation pressure,403.2 K,303.1 ± 6.3 kPa
same,vapor or sublimation pressure,413.2 K,406.6 ± 8.5 kPa
same,vapor or sublimation pressure,423.2 K,546.1 ± 11 kPa
